{"source": "patent US20150139936A1", "about": "“DOSAGE AND ADMINISTRATION OF BISPECIFIC SCFV CONJUGATES IN COMBINATION WITH ANTI-CANCER THERAPEUTICS” (Merrimack Pharmaceuticals, Inc., priority 2012, published 2015)", "key": {"[1]": {"details": "cited from earlier work"}, "[2]": {"details": "oral; cited from earlier work"}, "[3]": {"assay": "Pre-clinical combination efficacy of MM-111", "details": "with lapatinib, trastuzumab, paclitaxel or docetaxel"}}}
{"molecule": "CC(=O)O[C@@]12CO[C@@H]1C[C@H](O)[C@@]1(C)C(=O)[C@H](O)C3=C(C)[C@@H](OC(=O)[C@H](O)[C@@H](NC(=O)OC(C)(C)C)c4ccccc4)C[C@@](O)([C@@H](OC(=O)c4ccccc4)[C@H]21)C3(C)C", "note": "[docetaxel, 1,7β,10β-trihydroxy-9-oxo-5β,20-epoxytax-11-ene-2α,4,13α-triyl 4-acetate 2-benzoate 13-{(2R,3S)-3-[(tert-butoxycarbonyl)amino]-2-hydroxy-3-phenylpropanoate}]", "values": [{"measurement": "water solubility", "setting": "[1]", "value": "more water soluble than paclitaxel"}]}
{"molecule": "CS(=O)(=O)CCNCc1ccc(-c2ccc3ncnc(Nc4ccc(OCc5cccc(F)c5)c(Cl)c4)c3c2)o1", "note": "[lapatinib]", "values": [{"measurement": "bioavailability with food consumption", "setting": "[2]", "value": "increased"}]}
{"molecule": "MM-111: bispecific anti-ErbB2/anti-ErbB3 antibody, scFv HSA conjugate, SEQ ID NO:1", "values": [{"measurement": "combination effect (efficacy)", "setting": "[3]", "value": "additive"}]}
